PMC8894159, “Paltusotine, a novel oral once-daily nonpeptide SST2 receptor agonist, suppresses GH and IGF-1 in healthy volunteers” (Pituitary, 2022)

Legend:
SST2 = tested on: SST2; parameters: method as in ref 13 = [13]; 13. Betz SF Markison S Kusnetzow AK Athanacio JD Rico-Bautista E Madan A Suppression of growth hormone and insulin-like growth factor 1 in rats after oral administration of CRN00808, a small molecule; settings: cited from earlier work
[1] = tested on: stimulated-GH and IGF-1 secretion; parameters: method as in ref 13 = [13]; 13. Betz SF Markison S Kusnetzow AK Athanacio JD Rico-Bautista E Madan A Suppression of growth hormone and insulin-like growth factor 1 in rats after oral administration of CRN00808, a small molecule; settings: cited from earlier work
[2] = tested on: GHRH-stimulated GH secretion; test: GHRH challenge: suppression of GHRH-stimulated GH secretion, single-dose cohorts; type: in vivo, human
Experimental: To assess the ability of paltusotine to suppress GHRH-stimulated GH secretion, a GHRH challenge was performed in single-dose cohorts S1, S2, S3, S4, and S5 (oral solution) (Fig. 1). Recombinant human GHRH(1-44)-NH2 (somatorelin; Ferring Pharmaceuticals, Parsippany, NJ) 50 µg was administered intravenously 2 h after paltusotine (or placebo) on Day 1 and at approximately the same time on Day -1 (± 10 min). A blood sample for serum GH was collected at − 60 min, − 30 min, immediately before GHRH challenge, and at 15, 30, 45, 60, 90, and 120 min post-challenge. Serum GH was also assessed in the M1 cohort. Serum GH sample was collected on Day - 1, on Days 1 and 7 (pre-dose, 0.5, 1, 2, 3, 4, 6, 8, 10, 12 and 18 h post-dose), Days 2–6 (pre-dose and 12 h post-dose), and Days 8, 10 and 14 (at approximately the same time as dosing).
(§1) Serum was isolated, stored, and analyzed for IGF-1 and GH according to the instructions from the manufacturer (IGF-1 and human GH diagnostic assay, Siemens Immulite® 1000 systems).
(§2) The study endpoints were effects of paltusotine on GHRH-stimulated GH and IGF-1 (pharmacodynamics), pharmacokinetics (including formulation and food effects), safety, and tolerability. For the analysis of effects paltusotine on GHRH-stimulated GH and IGF-1, the pharmacodynamic population included all randomized participants in the 1.25 mg, 2.5 mg, 5 mg, 10 mg, and 20 mg (S1, S2, S3, S4A, and S5) single-dose cohorts who received any amount of study drug and had at least one post-baseline pharmacodynamic assessment. The percent change in serum GH area under the curve (AUC) from 0 to 2 h (AUC0-2) from baseline was compared using ANOVA between each dosing cohort and all participants who received placebo. The single-dose pharmacodynamic population included 39 participants from the S1, S2, S3, S4, and S5 cohorts (paltusotine n = 29; placebo n = 10). […] For multiple-dose cohorts, only participants who received all doses were included. A change in IGF-1 levels 12 h post last dose from baseline (average of 3–4 measurements) were compared by ANOVA between each dosing cohort and all participants who received placebo. The multiple-dose pharmacodynamic population included 31 participants from the M1, M2, M3, and M4 cohorts (paltusotine n = 21; placebo n = 10).

serum IGF-1 = test: Serum IGF-1 suppression in healthy volunteers; type: in vivo, human
Experimental: For assessment of serum IGF-1, in the single-dose cohorts, serum IGF-1 was collected on Day - 1 and Day 1 (pre-dose to 18 h post-dose), and Day 2 and 7 (at approximately the same time GHRH was administered on Day 1). In the M1 cohort, IGF-1 samples were obtained pre-dose, 6 and 12 h post-dose on Days - 1, 1 and 7; pre-dose and 12 h post-dose on Days 2–6; and at approximately the same time as dosing on Days 8, 10, and 14. For M2 and subsequent cohorts, IGF-1 samples were obtained pre-dose, 6 and 12 h post-dose on Days - 1, 1 and 10; pre-dose and 12 h post-dose on Days 2–9; and at approximately the same time as dosing on Days 11, 14, and 21.
as §1, §2

[3] = Safety and tolerability, multiple-dose cohorts; type: in vivo, human
Experimental: Safety assessments included monitoring of clinical laboratory tests, cardiovascular safety monitoring (continuous Holter monitoring, ECG, telemetry), and physical examinations conducted at scheduled times throughout the study in the research units as well as post-discharge (up to 9 days after the single-dose, or up to 11 days after the last dose for multiple-dose cohorts). Adverse events and concomitant medications were recorded. Laboratory samples for clinical chemistry, hematology, coagulation tests, and urinalysis were collected under fasted conditions. Participants who discontinued prematurely attended an early termination visit. In the multiple-dose cohorts, baseline serum TSH, ACTH, and prolactin samples were collected on Day -2, and an oral glucose tolerance test (OGTT) was conducted on Day -7 or earlier. These assessments were repeated on Day 8 (M1) or Day 11 (M2 and subsequent cohorts). A safety review committee oversaw the study and made decisions to escalate, expand or decrease the dose for the cohorts based on a review of demographics, pharmacokinetics, pharmacodynamics, and safety data in a blinded fashion. For the safety analysis, adverse events were coded using the Medical Dictionary for Regulatory Activities (MedDRA® Version 20.0). Adverse events were grouped by preferred terms. Treatment-emergent adverse events (TEAEs) were summarized with descriptive statistics.

[4] = plasma concentration-response model, 1.25-20 mg single doses
[5] = multiple-dosing, safety population N = 24
[6] = multiple-dosing, safety population N = 24, listed as Paltusotine
[7] = one subject, cohort M3 20 mg, discontinued after Day 5

## Cl.N#Cc1cccc(-c2ccc3ncc(-c4cc(F)cc(F)c4)c(N4CCC(N)CC4)c3c2)c1O [paltusotine, 3-[4-(4-Aminopiperidin-1-yl)-3-(3,5-difluorophenyl)quinolin-6-yl]-2-hydroxybenzonitrile hydrochloride]
SST2
  selectivity for SST2 over other somatostatin receptor subtypes: > 4000 fold
SST2; read-out: SST2 agonist EC50
  EC50: 250 pM
[1]
  stimulated-GH and IGF-1 secretion in rats: suppresses stimulated-GH and IGF-1 secretion
[2]; 10 mg single dose, Day 1, GHRH alone on Day -1 gave 21 ng/mL
  mean peak GH concentration after GHRH challenge: 1.7 ng/mL
[2]; 10 mg single dose, placebo 15%
  suppression of stimulated GH AUC0-2 h: 91%
[2]; Homo sapiens, read-out: paltusotine concentration for 50% GH suppression (EC50), plasma concentration-response model, 1.25-20 mg single doses
  EC50: ~7.9 ng/mL
[2]; [4]
  paltusotine concentration for 50% GH suppression (EC50): 7.9 ng/mL
  paltusotine concentration for 80% GH suppression (EC80): ~29 ng/mL
Serum IGF-1; 5 mg once daily, Day 7, relative to baseline
  IGF-1 suppression: 19%
Serum IGF-1; 10 mg cohort, final dose on Day 10
  additional time IGF-1 remained suppressed after the final dose: 4 days
Serum IGF-1; 10 mg once daily, Day 10, relative to baseline
  IGF-1 suppression: 37%
Serum IGF-1; 20 mg once daily, Day 10, relative to baseline
  IGF-1 suppression: 37%
Serum IGF-1; 30 mg once daily, Day 10, relative to baseline
  IGF-1 suppression: 30%
Serum IGF-1; multiple-dose cohorts
  maximal degree of IGF-1 suppression: up to 37%
Serum IGF-1; once-daily dosing (10 mg cohort illustrated)
  time to near-maximum IGF-1 suppression: approximately 7 days
Serum IGF-1; single 1.25 to 20 mg dose, compared to Day -1 or placebo
  serum IGF-1 change after a single dose: little to no change
[3]; 30 mg multiple dose, 95% CI 1.8-4.6, placebo 1.5
  increase in glucose AUC0-3 upon 75 g oral glucose challenge compared to baseline: 3.2 mmol·h/L
[3]; all cohorts
  heart rate, ECG morphology, PR duration, QRS interval, QTcF interval: no clinically meaningful changes
[3]; multiple-dose cohorts
  fasting plasma glucose: not significantly changed
  share of TEAEs occurring at a dose level of 10 mg or higher: 78%
[3]; [5]
  Abdominal pain (TEAE): 4 n (%)
  Diarrhea (TEAE): 4 n (%)
  Headache (TEAE): 3 n (%)
  Hyperglycemia (TEAE): 2 (8.3%) n (%)
  Lipase/pancreatic enzymes increased (TEAE): 2 (8.3%) n (%)
  Participants with at least 1 TEAE: 17 (70.8%) n (%)
  Upper respiratory tract infection (TEAE): 2 (8.3%) n (%)
  Ventricular tachycardia (non-sustained) (TEAE): 2 (8.3%) n (%)
[3]; [6]
  Abdominal pain (TEAE): 4 (16.7%) n (%)
  Diarrhea (TEAE): 4 (16.7%) n (%)
  Headache (TEAE): 3 (12.5%) n (%)
[3]; [7]
  amylase peak: 2 times the upper limit of normal
  lipase peak: 3.9 times the upper limit of normal
[3]; one subject, cohort M4 30 mg, 24 h after the tenth dose
  lipase elevation: 1.7 times the upper limit of normal
[3]; repeated administration
  TSH, ACTH, or prolactin levels: no consistent trends of clinical relevance
[3]; repeated daily capsules, 7 days (5 mg) and 10 days (10, 20, 30 mg)
  tolerability: well tolerated
